# Target: hGLP-1R (Homo sapiens, UniProt P43220)
# Experiment: cAMP accumulation in HEK-293 cells expressing hGLP-1R (HEK-GLP-1 cells)
# Type: cell-based
# Conditions: HEK293, read-out: Potentiation of GLP-1 Emax at 10 ?M in a cAMP assay (%); 10 ?M compound (supplementary csv)
# Method: After this time the culture medium was replaced by 20 μL fresh Opti-MEM containing 500 μM IBMX and 100 μM K579 and incubated with gentle stirring for 10 min at rt. […] Concentration-response curves were fitted to a 4-parameter logistic equation by using GraphPad Prism 2.1 software.
# Chain of hGLP-1R (P43220 24-463): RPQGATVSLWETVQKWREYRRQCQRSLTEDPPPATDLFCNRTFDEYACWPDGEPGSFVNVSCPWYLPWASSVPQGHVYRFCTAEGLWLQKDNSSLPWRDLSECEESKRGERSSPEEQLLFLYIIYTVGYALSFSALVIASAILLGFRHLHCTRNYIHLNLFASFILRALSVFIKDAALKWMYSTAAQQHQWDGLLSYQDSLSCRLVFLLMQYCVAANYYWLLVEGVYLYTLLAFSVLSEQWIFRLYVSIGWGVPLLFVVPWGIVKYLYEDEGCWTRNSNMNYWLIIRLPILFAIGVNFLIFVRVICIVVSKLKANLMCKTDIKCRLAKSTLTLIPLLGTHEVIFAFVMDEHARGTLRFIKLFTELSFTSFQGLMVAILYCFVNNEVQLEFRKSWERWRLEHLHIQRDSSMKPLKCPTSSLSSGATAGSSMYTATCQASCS
row,Structure (SMILES),Emax
1,Cc1ccccc1S(=O)(=O)NCC1CCN(Cc2nc(-c3ccc(C(F)(F)F)cc3)no2)CC1 [S33],< 30%
2,COc1ccc(Br)cc1S(=O)(=O)NC(=O)CC1CCN(Cc2nc(-c3ccc(C(F)(F)F)cc3)no2)CC1 [S64],< 30%
3,Fc1ccc(-c2noc(CN3CCCC(CN4CCOCC4)C3)n2)cc1 (stereo not drawn) [S78],< 30%
4,O=S(=O)(NC1CCN(Cc2nc(-c3ccc(C(F)(F)F)cc3)no2)CC1)c1cccc(F)c1 [S13],< 30%
5,O=S(=O)(NCC1CCN(Cc2nc(-c3ccc(C(F)(F)F)cc3)no2)CC1)c1ccc(C(F)(F)F)cc1 [S35],< 30%
6,COc1ccc(S(=O)(=O)NC(=O)CC2CCN(Cc3nc(-c4ccc(C(F)(F)F)cc4)no3)CC2)cc1 [S61],< 30%
7,CNC(=O)c1cccc(-c2noc(CN3CCCC(CN4CCOCC4)C3)n2)c1 (stereo not drawn) [S86],< 30%
8,Clc1ccc(-c2noc(CN3CCCC(CN4CCOCC4)C3)n2)cc1 (stereo not drawn) [S81],< 30%
9,NC(=O)c1cccc(-c2noc(CN3CCCC(CN4CCOCC4)C3)n2)c1 (stereo not drawn) [S84],< 30%
10,Cc1ccccc1S(=O)(=O)NC1CCN(Cc2nc(-c3ccc(C(F)(F)F)cc3)no2)CC1 [S15],< 30%
11,O=S(=O)(NCC1CCN(Cc2nc(-c3ccc(C(F)(F)F)cc3)no2)CC1)c1ccc(Cl)cc1 [S30],< 30%
12,Fc1ccccc1-c1noc(CN2CCCC(CN3CCOCC3)C2)n1 (stereo not drawn) [S76],< 30%
13,O=S(=O)(NC1CCN(Cc2nc(-c3ccc(C(F)(F)F)cc3)no2)CC1)c1ccc(OC(F)(F)F)cc1 [S17],< 30%
14,COc1cccc(-c2noc(CN3CCCC(CN4CCOCC4)C3)n2)c1 (stereo not drawn) [S71],< 30%
15,O=C(CC1CCN(Cc2nc(-c3ccc(C(F)(F)F)cc3)no2)CC1)NS(=O)(=O)c1ccc(OC(F)(F)F)cc1 [S63],< 30%
16,Cc1cccc(-c2noc(CN3CCCC(CN4CCOCC4)C3)n2)c1 (stereo not drawn) [S68],< 30%
17,N#Cc1ccccc1S(=O)(=O)NCC1CCN(Cc2nc(-c3ccc(C(F)(F)F)cc3)no2)CC1 [S25],< 30%

row,Structure (SMILES),Emax
1,COc1ccc(S(=O)(=O)NC(=O)C2CCN(Cc3nc(-c4ccc(C(F)(F)F)cc4)no3)CC2)cc1 [S48],< 30%
2,O=C(CC1CCN(Cc2nc(-c3ccc(C(F)(F)F)cc3)no2)CC1)NS(=O)(=O)c1cccc(F)c1 [S56],< 30%
3,COc1ccc(S(=O)(=O)NCC2CCN(Cc3nc(-c4ccc(C(F)(F)F)cc4)no3)CC2)cc1 [S34],< 30%
4,O=C(CC1CCN(Cc2nc(-c3ccc(C(F)(F)F)cc3)no2)CC1)NS(=O)(=O)c1cccc(Cl)c1 [S58],< 30%
5,O=S(=O)(NC1CCN(Cc2nc(-c3ccc(C(F)(F)F)cc3)no2)CC1)c1ccc(F)cc1 [S14],< 30%
6,O=C(NS(=O)(=O)Cc1ccccc1)C1CCN(Cc2nc(-c3ccc(C(F)(F)F)cc3)no2)CC1 [S39],< 30%
7,Cc1ccc([N+](=O)[O-])cc1S(=O)(=O)NC1CCN(Cc2nc(-c3ccc(C(F)(F)F)cc3)no2)CC1 [S19],< 30%
8,CC(=O)c1cccc(S(=O)(=O)NCC2CCN(Cc3nc(-c4ccc(C(F)(F)F)cc4)no3)CC2)c1 [S23],< 30%
9,N#Cc1cccc(S(=O)(=O)NCC2CCN(Cc3nc(-c4ccc(C(F)(F)F)cc4)no3)CC2)c1 [S26],< 30%
10,O=S(=O)(NCC1CCN(Cc2nc(-c3ccc(C(F)(F)F)cc3)no2)CC1)c1ccc(F)cc1 [S32],< 30%
11,N#Cc1ccccc1S(=O)(=O)NC1CCN(Cc2nc(-c3ccc(C(F)(F)F)cc3)no2)CC1 [S7],< 30%
12,O=C(CC1CCN(Cc2nc(-c3ccc(C(F)(F)F)cc3)no2)CC1)NS(=O)(=O)c1ccc(Cl)cc1 [S59],< 30%
13,O=[N+]([O-])c1ccccc1S(=O)(=O)NC1CCN(Cc2nc(-c3ccc(C(F)(F)F)cc3)no2)CC1 [S5],< 30%
14,COc1ccccc1-c1noc(CN2CCCC(CN3CCOCC3)C2)n1 (stereo not drawn) [S70],< 30%
15,Cc1ccccc1S(=O)(=O)NC(=O)C1CCN(Cc2nc(-c3ccc(C(F)(F)F)cc3)no2)CC1 [S47],< 30%
16,N#Cc1ccc(S(=O)(=O)NC2CCN(Cc3nc(-c4ccc(C(F)(F)F)cc4)no3)CC2)cc1 [S9],< 30%
